Assay results taken from patent publication US3985740A, “7-[D-(α-amino-α-phenyl-, 2-thienyl- and 3-thienylacetamido)]-3-(5-methylthiazol-2-yl)carbonylthiomethyl-3-cephem -4-carboxylic acids” (Bristol-Myers Company, priority 1974, dated 1976).
In brackets after ≈: the same amount, converted by molar mass. Like-named read-outs stand apart in the source and are kept apart here.

Key:
K. pneumoniae A9977 = experiment: M.I.C. by tube dilution; assay type: cell-based; details: Klebsiella pneumoniae, A9977; at 10^-^4 dilution; overnight 37° C.; read-out: M.I.C.
S. aureus A9748 = experiment: M.I.C. by tube dilution; assay type: cell-based; details: Staphylococcus aureus, overnight 37° C., read-out: M.I.C.
Str. pyogenes A9604 = experiment: M.I.C. by tube dilution; assay type: cell-based; details: Streptococcus pyogenes, Str. pyogenes + 5% serum, 50% Nutrient Broth - 45% Antibiotic Assay Broth, overnight 37° C.
Pr. morganii A15153 = experiment: M.I.C. by tube dilution; assay type: cell-based; details: Morganella morganii
K. pneumoniae A15130 = experiment: M.I.C. by tube dilution; assay type: cell-based; details: Klebsiella pneumoniae, A15130, at 10^-^4 dilution, overnight 37° C.
[1] = Blood levels in the mouse after oral administration; assay type: in vivo; details: for concentration at 0.5 h / concentration at 1 h / concentration at 2 h / concentration at 3.5 h: blood, 100 mg/kg, read-out: Blood Level; for concentration at 1 h: 1 hr. after administration; for concentration at 2 h: 2 hrs. after administration; for concentration at 3.5 h: 3.5 hrs. after administration
Experimental: Blood levels in the mouse after oral administration were
determined with the following results:

Ps. aeruginosa A9843A = experiment: M.I.C. by tube dilution; assay type: cell-based; details: Pseudomonas aeruginosa
[2] = test system: S. aureus BX 1633-2 A9606; experiment: M.I.C. by tube dilution; assay type: cell-based; details: Staphylococcus aureus, overnight 37° C., read-out: M.I.C.
Pr. mirabilis A9900 = experiment: M.I.C. by tube dilution; assay type: cell-based; details: Proteus mirabilis, A9900, at 10^-^4 dilution, overnight 37° C.
E. coli Juhl A15119 = experiment: M.I.C. by tube dilution; assay type: cell-based; details: Escherichia coli, JUHLA15119
Sal. enteritidis A9531 = experiment: M.I.C. by tube dilution; assay type: cell-based; details: Salmonella enterica, ENTERITIDIS; at 10^-^4 dilution; overnight 37° C.; read-out: M.I.C.
S. aureus Smith A9537 = experiment: M.I.C. by tube dilution; assay type: cell-based; details: Staphylococcus aureus, overnight 37° C., read-out: M.I.C.
E. coli A9675 = experiment: M.I.C. by tube dilution; assay type: cell-based; details: Escherichia coli, A9675; at 10^-^4 dilution; overnight 37° C.; read-out: M.I.C.
D. pneumoniae A9585 = experiment: M.I.C. by tube dilution; assay type: cell-based; details: Streptococcus pneumoniae, D. pneumoniae + 5% serum, 50% Nutrient Broth - 45% Antibiotic Assay Broth, overnight 37° C.
[3] = test system: S. aureus methicillin-resistant A15097; experiment: M.I.C. by tube dilution; assay type: cell-based; details: Staphylococcus aureus, at 10^-^3 dilution, overnight 37° C.
Ser. marcescens A20019 = experiment: M.I.C. by tube dilution; assay type: cell-based; details: Serratia marcescens
[4] = test system: certain important pathogenic organisms; experiment: In vitro activity in the primary screening tests (overall); assay type: cell-based; details: in words
Text: This combination of good oral absorption and high antibacterial activity in a cephalosporin while highly desirable is quite uncommon in compounds reported to date. […] To illustrate the unpredictability of oral absorption and antibacterial activity in a closely related series of cephalosporin compounds, Tables 1-8 below compare in vitro activities and oral absorption as tested in the mouse of the compounds of the formula ##SPC12##

[5] = mouse, oral, 100 mgm./kg., 0.5 hrs. after administration
[6] = BX16332A9606, at 10^-^2 dilution
[7] = BX16332A9606, at 10^-^3 dilution
[8] = at 10^-^4 dilution, overnight 37° C., read-out: M.I.C.
[9] = SMITHA9537, + 50% serum, at 10^-^4 dilution

Cc1csc(C(=O)SCC2=C(C(=O)O)N3C(=O)C(NC(=O)[C@H](N)c4ccccc4)[C@H]3SC2)n1 (stereo partly drawn) [Compound 556, 7-[D-α-aminophenylacetamido]-3-(4-methylthiazol-2-yl)carbonylthiomethyl-3-cephem-4-carboxylic acid]
MIC (K. pneumoniae A9977): 32 µg/mL (≈ 63.4 µM)
MIC (S. aureus A9748; A9748, at 10^-^2 dilution): 8 µg/mL (≈ 15.9 µM)
MIC (S. aureus A9748; A9748, at 10^-^3 dilution): 4 µg/mL (≈ 7.93 µM)
MIC (Str. pyogenes A9604): 2.5 µg/mL
MIC (Pr. morganii A15153): 125 µg/mL (≈ 248 µM)
MIC (K. pneumoniae A15130): 125 µg/mL (≈ 248 µM)
concentration at 0.5 h [1, 5]: 15200 ng/mL
concentration at 1 h ([1]; mouse, oral, 100 mgm./kg.): 16200 ng/mL
concentration at 2 h ([1]; mouse, oral, 100 mgm./kg.): 7800 ng/mL
concentration at 3.5 h ([1]; mouse, oral, 100 mgm./kg.): < 2100 ng/mL
Blood Level [1, 5]: 15200 ng/mL
MIC (Ps. aeruginosa A9843A): 125 µg/mL (≈ 248 µM)
MIC [2, 6]: 4 µg/mL (≈ 7.93 µM)
MIC [2, 7]: 1.3 µg/mL (≈ 2.58 µM)
MIC (Pr. mirabilis A9900; read-out: M.I.C.): 32 µg/mL (≈ 63.4 µM)
MIC (E. coli Juhl A15119; [8]): 32 µg/mL (≈ 63.4 µM)
MIC (Sal. enteritidis A9531): 1 µg/mL (≈ 1.98 µM)
MIC (S. aureus Smith A9537; [9]): 63 µg/mL
MIC (S. aureus Smith A9537; SMITHA9537, at 10^-^4 dilution): 1.3 µg/mL (≈ 2.58 µM)
MIC (E. coli A9675): 32 µg/mL (≈ 63.4 µM)
MIC (D. pneumoniae A9585): 1.3 µg/mL
MIC [3]: 4 µg/mL (≈ 7.93 µM)
MIC (Ser. marcescens A20019; [8]): 63 µg/mL (≈ 125 µM)

N[C@@H](C(=O)NC1C(=O)N2C(C(=O)O)=C(CSC(=O)c3nccs3)CS[C@H]12)c1ccccc1 (stereo partly drawn) [Compound 567, 7-[D-(-)-α-Aminophenylacetamido]-3-(thiazol-2-yl)carbonylthiomethyl-3-cephem-4-carboxylic acid]
MIC (K. pneumoniae A9977): 2 µg/mL (≈ 4.08 µM)
MIC (S. aureus A9748; A9748, at 10^-^2 dilution): 16 µg/mL (≈ 32.6 µM)
MIC (S. aureus A9748; A9748, at 10^-^3 dilution): 4 µg/mL (≈ 8.15 µM)
MIC (Str. pyogenes A9604): 0.04 µg/mL
MIC (Pr. morganii A15153; [8]): 63 µg/mL (≈ 128 µM)
MIC (K. pneumoniae A15130; read-out: M.I.C.): 8 µg/mL (≈ 16.3 µM)
concentration at 0.5 h [1, 5]: 16000 ng/mL
concentration at 1 h ([1]; mouse, oral, 100 mgm./kg.): 14100 ng/mL
concentration at 2 h ([1]; mouse, oral, 100 mgm./kg.): 3400 ng/mL
concentration at 3.5 h ([1]; mouse, oral, 100 mgm./kg.): < 400 ng/mL
oral absorption ([1]; in words): good oral absorption properties
MIC (Ps. aeruginosa A9843A): > 125 µg/mL
MIC [2, 6]: 2 µg/mL (≈ 4.08 µM)
MIC [2, 7]: 0.6 µg/mL (≈ 1.22 µM)
MIC (Pr. mirabilis A9900; read-out: M.I.C.): 2 µg/mL (≈ 4.08 µM)
MIC (E. coli Juhl A15119): 1 µg/mL (≈ 2.04 µM)
MIC (Sal. enteritidis A9531): 0.08 µg/mL (≈ 0.163 µM)
MIC (S. aureus Smith A9537; [9]): 8 µg/mL
MIC (S. aureus Smith A9537; SMITHA9537, at 10^-^4 dilution): 0.3 µg/mL (≈ 0.612 µM)
MIC (E. coli A9675): 4 µg/mL (≈ 8.15 µM)
activity relative to cephalexin [4]: excellent activity relative to cephalexin
MIC (D. pneumoniae A9585): 0.04 µg/mL
MIC [3]: 4 µg/mL (≈ 8.15 µM)
MIC (Ser. marcescens A20019): 125 µg/mL (≈ 255 µM)

Cc1nc(C(=O)SCC2=C(C(=O)O)N3C(=O)C(NC(=O)[C@H](N)c4ccccc4)[C@H]3SC2)sc1C (stereo partly drawn) [Compound 587, 7-[D-α-aminophenylacetamido]-3-(4,5-dimethylthiazol-2-yl)carbonylthiomethyl-3-cephem-4-carboxylic acid]
MIC (K. pneumoniae A9977): 32 µg/mL (≈ 61.7 µM)
MIC (S. aureus A9748; A9748, at 10^-^2 dilution): 16 µg/mL (≈ 30.8 µM)
MIC (S. aureus A9748; A9748, at 10^-^3 dilution): 4 µg/mL (≈ 7.71 µM)
MIC (Str. pyogenes A9604): 2.5 µg/mL
MIC (Pr. morganii A15153): > 125 µg/mL
MIC (K. pneumoniae A15130): > 125 µg/mL
concentration at 0.5 h [1, 5]: 6300 ng/mL
concentration at 1 h ([1]; mouse, oral, 100 mgm./kg.): 8900 ng/mL
concentration at 2 h ([1]; mouse, oral, 100 mgm./kg.): 4300 ng/mL
concentration at 3.5 h ([1]; mouse, oral, 100 mgm./kg.): 2000 ng/mL
MIC (Ps. aeruginosa A9843A): > 125 µg/mL
MIC [2, 6]: 1 µg/mL (≈ 1.93 µM)
MIC [2, 7]: 0.6 µg/mL (≈ 1.16 µM)
MIC (Pr. mirabilis A9900): > 125 µg/mL
MIC (E. coli Juhl A15119; [8]): 16 µg/mL (≈ 30.8 µM)
MIC (Sal. enteritidis A9531): 2.5 µg/mL (≈ 4.82 µM)
MIC (S. aureus Smith A9537; [9]): > 63 µg/mL
MIC (S. aureus Smith A9537; SMITHA9537, at 10^-^4 dilution): 0.3 µg/mL (≈ 0.578 µM)
MIC (E. coli A9675): 32 µg/mL (≈ 61.7 µM)
MIC (D. pneumoniae A9585): 2.5 µg/mL
MIC [3]: 4 µg/mL (≈ 7.71 µM)
MIC (Ser. marcescens A20019): > 125 µg/mL
